Patent US6689777B2 (Kenneth S. Warren Institute, priority 2001, dated 2004)
Structures can show the parent of a compound that is named as a salt. Where two headings read alike, the source gives them in different places.

How the values were obtained:
P. falciparum [1] = test: P. falciparum growth in culture ([3H]-hypoxanthine incorporation); format: cell-based; conditions: Plasmodium falciparum, read-out: IC50 vs. P. falc.
synthetic hemozoin = test: Depolymerization of synthetic hemozoin in vitro; format: biochemical; conditions: 50 mM test compound, acetate buffer pH 5.0, 37° C., 16 hours
Description: This activity is evaluated by incubating a suspension of monomer-free hemozoin at 37° C. with compounds of the present invention for 16 hours. After incubation, hemozoin is separated from any solubilized heme and soluble heme oligomers, the oligomers depolymerized, and the heme present in the supernatants determined.
The synthesis of synthetic hemozoin is carried out as previously described (26). In brief, 60 μmoles of hematin was dissolved in 8 ml of 0.1N NaOH. Following dissolution 49 mmoles of glacial acetic acid was added and the suspension heated at 70° C. overnight. The precipitate was then washed extensively with LPS-free water. In order to remove unreacted heme the precipitate was extracted with 0.1M sodium bicarbonate (pH 9.1) for three hours. The remaining insoluble material was recovered by centrifugation, resuspended in EtOH and transferred to sterile Eppendorf tubes. The material was washed several times in EtOH and finally resuspended in LPS-free double-distilled H2O. The hemozoin preparation was then tested for endotoxin by using the Limulus Amebocyte Lysate test following manufacturer's instructions. Although the preparation of LPS-free hemozoin from native or synthetic sources is not critical for in vitro depolymerization studies, it is critical for studies involving monocytes and animals (see Examples below). Small amounts of LPS can evoke a considerable cytokine response and interfere with interpretation of results. The amount of heme in the final product was determined from a small aliquot using the pyridine-hemochrome method as previously described (26). The preparations are stored at 4° C. until used.
A suspension of monomer-free hemozoin (equivalent to 2 mM free heme) as prepared above was incubated at 37° C. with […] test compound in total volume of 500 μl in acetate buffer (pH: 5.0) in siliconized Eppendorf tubes (Brinkmann Instruments, Westbury, N.Y.) for 16 hours. A control sample containing distilled H2O instead of hemozoin was included. The samples were centrifuged at 14,000 rpm (Eppendorf centrifuge model 5415C, Brinkmann Instruments, Westbury, N.Y.) for 20 min; then 225 μl supernatant was diluted in 175 μl acetate buffer (pH 5.0). Another 225 μl was added to 175 μl 0.5 M NaOH to dissolve possible oligomeric depolymerization products to monomers. Half of the pellet was washed twice for 2.5 hr in 200 μl 2.5% SDS (v/v) in dH2O, the other half was washed twice in 200 μl HCO3^− buffer (pH: 9.1). Both sample supernatants and SDS and HCO3^− buffer supernatants were centrifuged 14,000 rpm for 20 min. and supernatants were added to 10 μl sodium dithionite (200 mg/ml dH2O) to reduce the heme monomers in solution to Fe^2+. All samples were measured in triplicate at 540 nm (Model UV1601 spectrophotometer, Shimradzu Corp, Columbia, Md.). The OD obtained from the blind sample was subtracted from the OD of the hemozoin containing sample.

P. falciparum [2] = test: P. falciparum growth in culture ([3H]-hypoxanthine incorporation); format: cell-based; conditions: growth in culture, [3H]-hypoxanthine incorporation, read-out: IC50 vs. P. falc.
Description: To determine the effectiveness of the compounds of the present invention against the erythrocytic stage of the malarial parasite, P. falciparum was grown in human erythrocyte suspensions and maintained at 37° C. in candle jars according to the method of Trager and Jensen (15,16). Parasites were stage-synchronized by incubating mainly ring-stage infected erythrocytes in 5% sorbitol for 10 minutes at room temperature (17). Cultures undergo one growth cycle (2 days) before use. Strains used include the chloroquine sensitive strains D10 and HB3, and the chloroquine resistant isolates Dd2 and FCR.
Parasite growth was determined by measuring incorporation of [^3H]-hypoxanthine into the nucleic acids of the parasite (18). Effects of the compounds of the present invention on parasite growth was determined by measuring the reduction in incorporation of radiolabel as compared to controls. Briefly, assays are performed in 96-well microtiter plates. After 24 h of candle jar incubation at 37° C., [^3H]-hypoxanthine is added to each well. After 18 h the plates are harvested onto glass fiber filter 96 well plates using a cell harvester, dried, and the amount of radioactivity is determined. Drug IC50 values (molar concentration which decreases [^3H]-hypoxanthine incorporation by 50% as compared to drug-free controls) are calculated by extrapolation of the log dose-response curves using curve fitting software (Origin, Microcal Software, Northampton, Mass.).
Parasites were grown in A^+ human erythrocyte suspensions using RPMI-1640 (GIBCO, Gaithersburg, Md.) medium supplemented by 25 mM HEPES (pH 7.35), 0.2% NaHCO3 (23 mM), 0.2% (D)-Glucose and 10% human A^+ plasma and maintained at 37° C. in candle jars according to the method of Trager and Jensen (20,21) Parasites are stage synchronized by incubating mainly ring-stage infected erythrocytes in 5% sorbitol for 10 minutes at room temperature (22). Cultures undergo one growth cycle (2 days) before use. Strains used include the chloroquine sensitive strains D10 and HB3, and the chloroquine resistant isolates Dd2 and FCR.
Parasite growth was determined by measuring incorporation of [^3H]-hypoxanthine into the nucleic acids of the parasite as previously described (23). Effects of the compounds of the present invention on parasite growth was determined by measuring the reduction in incorporation of radiolabel as compared to controls. Briefly, assays were performed in 96-well microtiter plates, each well containing 200 μl of synchronized ring-stage infected erythrocytes in complete media and 50 μl of drug dilution or solvent. The final hematocrit was 1.5% and percent parasitemias range from 2-8%. After 24 h of candle jar incubation at 37° C., 2.5 μCi of [^3H]-hypoxanthine (17 Ci/mmol, Amersham, Arlington Heights, Ill.) in RPMI-1640 media supplemented with 25 mM HEPES (pH 7.35), 0.2% NaHCO3 (23 mM), 0.2% (D)-Glucose is added to each well. After 18 h the plates were harvested onto glass fiber filter 96 well plates using a cell harvester, dried, and 25 μl scintillation acid added per well. The, amount of radioactivity was determined. Drug IC50 values (molar concentration which decreases [^3H]-hypoxanthine incorporation by 50% as compared to drug-free controls) are calculated by extrapolation of the log dose-response curves using curve fitting software (Origin, Microcal Software, Northampton, Mass.). The effects on parasite grown by aromatic guanyllhydrazones, bisguanylhydrazones, naphthothiazolium salts, and other compounds of the instant invention, together with data on hemozoin depolymerization from Example 5, are shown in tables 1 through 4, respectively.

[3] = Table 3, naphthothiazolium salts, in culture
[4] = Table 1, aryl monoguanylhydrazones, growth in culture
[5] = Table 1, aryl monoguanylhydrazones

IC50 (P. falciparum [1]; [3])	IC50 (P. falciparum [1]; [4])	Structure (SMILES)	% depol. hemoz. (synthetic hemozoin; Table 3)	% depol. hemoz. (synthetic hemozoin; Table 1)	other results
> 10000 nM	–	Cc1c(O)c2ccccc2c2c1sc(Nc1ccccc1)[n+]2C.[Cl-] [1,2-dihydro-1,4-dimethyl-2-(phenylimino)naphtho[1,2-d]thiazol-5-ol monohydrochloride]	0.0%	–	–
1400 nM	–	Cc1c(O)c2ccccc2c2c1sc(NCCO)[n+]2C.[Cl-] [1,2-dihydro-2-[(2-hydroxyethyl)imino]-1,4-dimethylnaphtho[1,2-d]thiazol-5-ol monohydrochloride]	3.1%	–	–
6000 nM	–	C=CCNc1sc2c(C)c(O)c3ccccc3c2[n+]1CC=C.[Cl-] [1,2-dihydro-4-methyl-1-(2-propenyl)-2-(2-propenylimino)naphtho[1,2-d]thiazol-5-ol monohydrochloride]	4.8%	–	–
4200 nM	–	Cc1c(O)c2ccccc2c2nc(Nc3ccccc3)sc12.Cl [1,2-dihydro-4-methyl-2-(phenylimino)naphtho[1,2-d]thiazol-5-ol monohydrochloride]	0.0%	–	–
2500 nM	–	CCNc1sc2c(C)c(O)c3ccccc3c2[n+]1CC.[Cl-] [1-ethyl-2-(ethylimino)-1,2-dihydro-4-methylnaphtho[1,2-d]thiazol-5-ol monohydrochloride]	2.4%	–	–
1000 nM	–	Cc1c(O)c2ccccc2c2c1sc(NC1CCCCC1)[n+]2CCO.[Cl-] [2-(cyclohexylimino)-5-hydroxy-4-methylnaphtho[1,2-d]thiazole-1(2H)-ethanol monohydrochloride]	0.4%	–	–
–	1330 nM	CC(=NNC(=N)N)c1ccc(OCc2ccccc2)c(C)c1O.Cl [2-[1-(4-benzyloxy-2-hydroxy-3-methylphenyl)ethylidene]hydrazinecarboximidamide hydrochloride]	–	1.9%	–
–	6000 nM	N=C(N)NN=CCc1ccc2ccccc2c1O [2-[(1-hydroxy-2-naphthyl)ethylidene]hydrazinecarboximidamide hydrochloride]	–	–	–
–	3500 nM	Cl.N=C(N)NN=Cc1ccccc1O [2-[(2-hydroxyphenyl)methylene]hydrazinecarboximidamide hydrochloride]	–	3.5%	–
–	3400 nM	N=C(N)NN=Cc1ccnc2ccccc12 [2-[(4-quinolinyl)methylene]hydrazinecarboximidamide hydrochloride]	–	–	–
6300 nM	–	C=CCNc1nc2c(s1)c(C)c(O)c1ccccc12.Cl [4-methyl-2-(2-propenylamino)naphtho[1,2-d]thiazol-5-ol monohydrochloride]	0.4%	–	–

The next lines start with the molecule.

Structure (SMILES)	IC50 (P. falciparum [1]; [3])	IC50 (P. falciparum [1]; [4])	% depol. hemoz. (synthetic hemozoin; Table 3)	% depol. hemoz. (synthetic hemozoin; Table 1)	other results
Cl.Cl.N=C(N)NN=C1CCC(=NNC(=N)N)CC1 [2,2′-(1,4-cyclohexanediylidene)bis(hydrazinecarboximidamide) dihydrochloride]	–	–	–	–	IC50 (P. falciparum [1]; Table 4, in culture): 2000 nM; % depol. hemoz. (synthetic hemozoin; Table 4): 0%
CC(=NNC(=N)N)c1cccc(C(C)=NNC(=N)N)c1N [2,2′-[(2-amino-1,3-phenylene)diethylidyne]bis(hydrazinecarboximidamide) dihydrochloride]	–	–	–	–	IC50 (P. falciparum [2]; Table 2, aromatic bisguanylhydrazones): 6300 nM
C/C(=N\NC(=O)CN(C)C)c1cccc(/C(C)=N/NC(=O)CN(C)C)n1.Cl.Cl [2,6-bis[1-[[(dimethylamino)acetyl]hydrazono]ethyl]pyridine dihydrochloride]	–	–	–	–	IC50 (P. falciparum [1]; Table 4, in culture): 1500 nM; % depol. hemoz. (synthetic hemozoin; Table 4): 0%
CC(CCC1=C(C)C(=O)c2ccccc2C1=O)=NNC(=N)N.Cl [2-[3-(1,4-dihydro-1,4-dioxo-3-methyl-2-naphthalenyl)-1-methylpropylidene]hydrazinecarboximidamide hydrochloride]	–	–	–	–	IC50 (P. falciparum [1]; Table 4, in culture): 1300 nM; % depol. hemoz. (synthetic hemozoin; Table 4): 0.1%
CC1=CC(=O)c2cc(CC=NNC(=N)N)ccc2C1=O.Cl [2-[(1,4-dihydro-1,4-dioxo-3-methyl-7-naphthalenyl)ethylidene]hydrazinecarboximidamide hydrochloride]	–	1800 nM	–	0.4%	–
Cl.N=C(N)NN=Cc1cccc(O)c1O [2-[(2,3-dihydroxyphenyl)methylene]hydrazinecarboximidamide hydrochloride]	–	> 10000 nM	–	4.1%	–
COc1ccc(C=NNC(=N)N)c(O)c1 [2-[(2-hydroxy-4-methoxyphenyl)methylene]hydrazinecarboximidamide hydrochloride]	–	1000 nM	–	–	–
COc1ccc(O)c(C=NNC(=N)N)c1.Cl [2-[(2-hydroxy-5-methoxyphenyl)methylene]hydrazinecarboximidamide hydrochloride]	–	4400 nM	–	0.9%	–
Cl.N=C(N)NN=CCc1ccccc1O [2-[(2-hydroxyphenyl)ethylidene]hydrazinecarboximidamide hydrochloride]	–	> 10000 nM	–	0.4%	–
Cl.N=C(N)NN=CCc1ccc(O)c(O)c1 [2-[(3,4-dihydroxyphenyl)ethylidene]hydrazinecarboximidamide hydrochloride]	–	> 10000 nM	–	0.5%	–
CC(=NNC(=N)N)c1cccc(-c2cc(C)n(C)c(=N)n2)c1 [2-[[3-(3,4-dimethyl-2(3H)-imino-6-pyrimidinyl)phenyl]ethylidene]hydrazinecarboximidamide hydrochloride hydroiodide]	–	–	–	–	IC50 (P. falciparum [2]; [5]): 1050 nM
CC(=NNC(=N)N)c1ccc(-c2cc(C)n(C)c(=N)n2)cc1 [2-[[4-(3,4-dimethyl-2(3H)-imino-6-pyrimidinyl)phenyl]ethylidene]hydrazinecarboximidamide hydrochloride hydroiodide]	–	–	–	–	IC50 (P. falciparum [2]; [5]): 600 nM
